The target of one assay is T1, human plasmin (Homo sapiens, UniProt P00747).
T1 construct: purchased Kordia
Description: Measurement of plasmin inhibition (fluorogenic peptide substrate MeOSuc-Ala-Phe-Lys-AMC). Format: biochemical. As to conditions: plasmin from Kordia, 15 min preincubation, 30 min at 22° C., fluorescence. The method, then:
The plasmin inhibition of the inventive substances is determined using a biochemical test system which utilizes the reaction of a peptidic plasmin substrate to determine the enzymatic activity of human plasmin. Here, plasmin cleaves from the peptic plasmin substrate the C-terminal aminomethylcoumarin (AMC), the fluorescence of which is measured. The determinations are carried out in microtitre plates.
Test substances are dissolved in dimethyl sulphoxide and serially diluted in dimethyl sulphoxide (3000 μM to 0.0078 μM; resulting final concentrations in the test: 50 μM to 0.00013 μM). In each case 1 μl of the diluted substance solutions are placed into the wells of white microtitre plates from Greiner (384 wells). Subsequently, the following are added successively: 20 μl of assay buffer (50 mmol/Tris buffer pH 7.4; 100 mmol/l sodium chloride; 5 mmol/calcium chloride; 0.1% bovine serum albumin) and 20 μl of plasmin from Kordia (0.3 μg/ml in assay buffer) are then added successively. After 15 min of incubation, the enzyme reaction is started by addition of 20 μl of the plasmin substrate MeOSuc-Ala-Phe-Lys-AMC dissolved in assay buffer (150 μM in assay buffer) from Bachem, the mixture is incubated at room temperature (22° C.) for 30 min and fluorescence is then measured (excitation: 360 nm, emission: 460 nm). The measured emissions of the test batches with test substance are compared to those of control batches without test substance (only dimethyl sulphoxide instead of test substance in dimethyl sulphoxide), and the IC50 values are calculated from the concentration/activity relationships.

The next assay has as its target T2, human factor XIa (Homo sapiens, UniProt P03951).
T2 construct: purchased Kordia
Description: Measurement of FXIa inhibition (fluorogenic peptide substrate Boc-Glu(OBzl)-Ala-Arg-AMC). Type of assay: biochemical. Conditions: factor XIa from Kordia, 15 min preincubation, 30 min at 22° C., fluorescence. The procedure, abridged:
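Released AMC fluorescence (360/460 nm) read after 30 min at 22 °C. The reaction was started with Boc-Glu(OBzl)-Ala-Arg-AMC (10 μM stock) after a 15 min preincubation of the enzyme (0.45 nM stock) with compound (final 50 μM to 0.00013 μM).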

Another assay relates to human and animal plasma. Kind of assay: Determination of anticoagulatory activity: activated partial thromboplastin time (aPTT) in plasma. Conditions: concentration of test substance which brings about a 1.5-fold extension of the aPTT; plasma species not given. An outline of the steps:
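Citrated plasma (1:9, 0.11 M citrate; 4000 g, 15 min) from human or animal blood incubated with test compound and cephalin/kaolin PTT reagent for 3 min at 37° C.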

Where a name gives a salt, the structure may show the parent alone.

What is called IC50 is the concentration that gives 50% inhibition. A low value points to higher potency.

T1 sequence (P00747 581-810 limits assumed): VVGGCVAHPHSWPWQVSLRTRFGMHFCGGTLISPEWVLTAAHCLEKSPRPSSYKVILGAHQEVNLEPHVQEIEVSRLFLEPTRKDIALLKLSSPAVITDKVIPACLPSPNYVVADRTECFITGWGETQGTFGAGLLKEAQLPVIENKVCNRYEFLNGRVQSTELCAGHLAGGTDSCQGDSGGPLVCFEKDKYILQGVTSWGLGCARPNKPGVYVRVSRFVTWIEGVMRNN
T1 sequence (P00747 97-580 partner limits assumed): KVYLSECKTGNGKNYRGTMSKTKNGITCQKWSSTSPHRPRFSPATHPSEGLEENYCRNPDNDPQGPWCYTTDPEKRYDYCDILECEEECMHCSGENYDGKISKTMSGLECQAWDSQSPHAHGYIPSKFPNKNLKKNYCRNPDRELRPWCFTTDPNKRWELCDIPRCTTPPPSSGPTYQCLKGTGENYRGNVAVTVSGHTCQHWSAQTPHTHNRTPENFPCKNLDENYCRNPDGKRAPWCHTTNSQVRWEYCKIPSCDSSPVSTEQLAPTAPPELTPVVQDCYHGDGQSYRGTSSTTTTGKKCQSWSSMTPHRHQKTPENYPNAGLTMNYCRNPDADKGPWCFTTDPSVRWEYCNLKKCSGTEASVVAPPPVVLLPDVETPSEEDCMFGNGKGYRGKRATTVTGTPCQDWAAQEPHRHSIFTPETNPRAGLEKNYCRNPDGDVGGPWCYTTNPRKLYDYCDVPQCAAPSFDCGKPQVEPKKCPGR
T2 sequence (P03951 388-625 limits assumed): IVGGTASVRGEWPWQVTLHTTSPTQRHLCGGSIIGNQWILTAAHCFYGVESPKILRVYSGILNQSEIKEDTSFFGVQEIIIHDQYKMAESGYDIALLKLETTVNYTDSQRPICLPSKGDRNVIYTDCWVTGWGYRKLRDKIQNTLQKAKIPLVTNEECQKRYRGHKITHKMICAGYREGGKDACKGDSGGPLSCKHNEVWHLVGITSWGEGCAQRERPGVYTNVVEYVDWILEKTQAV
T2 sequence (P03951 19-387 partner limits assumed): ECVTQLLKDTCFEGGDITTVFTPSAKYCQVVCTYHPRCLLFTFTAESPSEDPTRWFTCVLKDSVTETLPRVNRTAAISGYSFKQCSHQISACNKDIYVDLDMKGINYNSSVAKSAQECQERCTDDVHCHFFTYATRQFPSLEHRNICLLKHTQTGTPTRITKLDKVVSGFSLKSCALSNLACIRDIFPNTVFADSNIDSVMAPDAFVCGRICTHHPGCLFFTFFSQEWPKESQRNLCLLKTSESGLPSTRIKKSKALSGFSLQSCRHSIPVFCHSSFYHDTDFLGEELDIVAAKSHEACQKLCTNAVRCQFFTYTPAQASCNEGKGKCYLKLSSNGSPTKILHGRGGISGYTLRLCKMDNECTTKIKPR

Turning to `Cc1cc(C(=O)NC(C)CO)ccc1-c1ccc(C[C@H](NC(=O)[C@H]2CC[C@H](CN)CC2)C(=O)Nc2ccc(-c3nnn[nH]3)cc2)cc1` (stereo partly drawn) [Example 139, 4′-[(2S)-2-({[trans-4-(Aminomethyl)cyclohexyl]carbonyl}amino)-3-oxo-3-{[4-(1H-tetrazol-5-yl)phenyl]amino}propyl]-N-(1-hydroxypropan-2-yl)-2-methylbiphenyl-4-carboxamide hydrochloride], the IC50 against human plasmin came to 13 nM; on human factor XIa, 4.1 nM. Also, the “aPTT” value with human and animal plasma is 0.17 µmol/L.
For `Cc1cc(C(=O)NC(C)C)ccc1-c1ccc(C[C@H](NC(=O)[C@H]2CC[C@H](CN)CC2)C(=O)Nc2cc(Cl)c3cn[nH]c3c2)cc1` [Example 159, 4′-{(2S)-2-({[trans-4-(Aminomethyl)cyclohexyl]carbonyl}amino)-3-[(4-chloro-1H-indazol-6-yl)amino]-3-oxopropyl}-N-isopropyl-2-methylbiphenyl-4-carboxamide hydrochloride], the IC50 against human plasmin turned out to be 0.32 nM; at human factor XIa it was 3.5 nM. In the assay on human and animal plasma, the “aPTT” value came out at 0.36 µmol/L.
Take `Cc1cc(C(=O)NC(C)C)ccc1-c1ccc(C[C@H](NC(=O)[C@H]2CC[C@H](CN)CC2)C(=O)Nc2ccc(-c3nn[nH]n3)c(F)c2)cc1` [Example 96, 4′-[(2S)-2-({[trans-4-(Aminomethyl)cyclohexyl]carbonyl}amino)-3-{[3-fluoro-4-(2H-tetrazol-5-yl)phenyl]amino}-3-oxopropyl]-N-isopropyl-2-methylbiphenyl-4-carboxamide hydrochloride]: the IC50 was found to be 1.4 nM on human plasmin and 1.3 nM against human factor XIa. Also, the “aPTT” value in the assay on human and animal plasma was determined as 0.5 µmol/L.
In the case of `Cc1cc(C(=O)NC2CC2)ccc1-c1ccc(C[C@H](NC(=O)[C@H]2CC[C@H](CN)CC2)C(=O)Nc2ccc3cn[nH]c3c2)cc1` [Example 167, 4′-[(2S)-2-({[trans-4-(Aminomethyl)cyclohexyl]carbonyl}amino)-3-(1H-indazol-6-ylamino)-3-oxopropyl]-N-cyclopropyl-2-methylbiphenyl-4-carboxamide hydrochloride], the IC50 against human plasmin amounted to 1.9 nM; against human factor XIa, 6 nM. In addition, the “aPTT” value in the assay on human and animal plasma is 0.12 µmol/L.
`Cc1cc(C(=O)NC(C)C)ccc1-c1ccc(C[C@H](NC(=O)[C@H]2CC[C@H](CN)CC2)C(=O)Nc2ccc3nc[nH]c3c2)cc1` [Example 142, 4′-[(2S)-2-({[trans-4-(Aminomethyl)cyclohexyl]carbonyl}amino)-3-(1H-benzimidazol-6-ylamino)-3-oxopropyl]-N-isopropyl-2-methylbiphenyl-4-carboxamide hydrochloride]: the IC50 against human plasmin was 2.1 nM; against human factor XIa it was 15 nM. Further, the “aPTT” value with human and animal plasma turned out to be 0.33 µmol/L.
With `Cc1cc(C(=O)NC(C)C)ccc1-c1ccc(C[C@H](NC(=O)[C@H]2CC[C@H](CN)CC2)C(=O)Nc2ccc3c(c2)[nH]c(=O)n3C)cc1` [Example 140, 4′-{(2S)-2-({[trans-4-(Aminomethyl)cyclohexyl]carbonyl}amino)-3-[(1-methyl-2-oxo-2,3-dihydro-1H-benzimidazol-5-yl)amino]-3-oxopropyl}-N-isopropyl-2-methylbiphenyl-4-carboxamide hydrochloride], the IC50 at human plasmin was found to be 1.5 nM; against human factor XIa, 13 nM. Moreover, the “aPTT” value in the assay on human and animal plasma worked out at 0.25 µmol/L.
The like results for `Cc1cc(C(=O)N[C@@H](C)C(F)(F)F)ccc1-c1ccc(C[C@H](NC(=O)[C@H]2CC[C@H](CN)CC2)C(=O)Nc2ccc3[nH]c(=O)[nH]c3c2)cc1` [Example 133, 4′-{(2S)-2-({[trans-4-(Aminomethyl)cyclohexyl]carbonyl}amino)-3-oxo-3-[(2-oxo-2,3-dihydro-1H-benzimidazol-5-yl)amino]propyl}-2-methyl-N-[(2S)-1,1,1-trifluoropropan-2-yl]biphenyl-4-carboxamide] were, in that order, 1.6 nM, 6.7 nM and 0.1 µmol/L.
Turning to `CC(C)NC(=O)c1ccc(-c2ccc(C[C@H](NC(=O)[C@H]3CC[C@H](CN)CC3)C(=O)Nc3ccc4[nH]c(=O)[nH]c4c3)cc2)c(Cl)c1` [Example 137, 4′-{(2S)-2-({[trans-4-(Aminomethyl)cyclohexyl]carbonyl}amino)-3-oxo-3-[(2-oxo-2,3-dihydro-1H-benzimidazol-5-yl)amino]propyl}-2-chloro-N-isopropylbiphenyl-4-carboxamide hydrochloride], the IC50 amounted to 2.2 nM against human plasmin and 11 nM against human factor XIa. For the same molecule, in the assay on human and animal plasma, the “aPTT” value was determined as 0.07 µmol/L.
The corresponding values for `Cc1cc(C(=O)NC(C)C)ccc1-c1ccc(C[C@H](NC(=O)[C@H]2CC[C@H](CN)CC2)C(=O)Nc2ccc(-c3nnc(CCC(=O)O)[nH]3)cc2)cc1` [Example 157, 3-{5-[4-({(2S)-2-({[trans-4-(Aminomethyl)cyclohexyl]carbonyl}amino)-3-[4′-(isopropyl-carbamoyl)-2′-methylbiphenyl-4-yl]propanoyl}amino)phenyl]-4H-1,2,4-triazol-3-yl}propanoic acid hydrochloride] are 1.7 nM, 3.6 nM and 0.33 µmol/L.
For the molecule `CC(NC(=O)c1ccc(-c2ccc(CC(NC(=O)[C@H]3CC[C@H](CN)CC3)C(=O)Nc3ccc(-c4nnn[nH]4)cc3)cc2)c(Cl)c1)C1CC1` (stereo partly drawn) [Example 136, hydrochloride], the IC50 was 1.5 nM against human plasmin and 1.2 nM against human factor XIa. Further, in the assay on human and animal plasma, the “aPTT” value came to 0.29 µmol/L.
Consider `Cc1cc(C(=O)NC(C)C)ccc1-c1ccc(C[C@H](NC(=O)[C@H]2CC[C@H](CN)CC2)C(=O)Nc2ccc(-c3nnc(C(F)(F)C(F)(F)C(=O)O)[nH]3)cc2)cc1` [Example 116, 3-{5-[4-({(2S)-2-({[trans-4-(Aminomethyl)cyclohexyl]carbonyl}amino)-3-[4′-(isopropylcarbamoyl)-2′-methylbiphenyl-4-yl]propanoyl}amino)phenyl]-4H-1,2,4-triazol-3-yl}-2,2,3,3-tetrafluoropropanoic acid hydrochloride], for which the IC50 stood at 4.4 nM against human plasmin and 2 nM at human factor XIa. Further, the “aPTT” value with human and animal plasma came out at 0.57 µmol/L.
For `Cc1cc(C(=O)NC2CC2)ccc1-c1ccc(C[C@H](NC(=O)[C@H]2CC[C@H](CN)CC2)C(=O)Nc2ccc3[nH]nnc3c2)cc1` [Example 141, 4′-[(2S)-2-({[trans-4-(Aminomethyl)cyclohexyl]carbonyl}amino)-3-(1H-benzotriazol-5-ylamino)-3-oxopropyl]-N-cyclopropyl-2-methylbiphenyl-4-carboxamide hydrochloride], the IC50 against human plasmin was found to be 1.6 nM; against human factor XIa, 3.9 nM. Also, in the assay on human and animal plasma, the “aPTT” value amounted to 0.30 µmol/L.
The like results for `Cc1cc(C(=O)NC2CCC2)ccc1-c1ccc(C[C@H](NC(=O)[C@H]2CC[C@H](CN)CC2)C(=O)Nc2ccc3c(=O)[nH][nH]c3c2)cc1` [Example 162, 4′-{(2S)-2-({[trans-4-(Aminomethyl)cyclohexyl]carbonyl}amino)-3-oxo-3-[(3-oxo-2,3-dihydro-1H-indazol-6-yl)amino]propyl}-N-cyclobutyl-2-methylbiphenyl-4-carboxamide hydrochloride] were, in that order, 1.1 nM, 1.8 nM and 0.15 µmol/L.
In the case of `Cc1cc(C(=O)NC2CCC2)ccc1-c1ccc(C[C@H](NC(=O)[C@H]2CC[C@H](CN)CC2)C(=O)Nc2cc(Cl)c3oc(=O)[nH]c3c2)cc1` [Example 102, 4′-{(2S)-2-({[trans-4-(Aminomethyl)cyclohexyl]carbonyl}amino)-3-[(7-chloro-2-oxo-2,3-dihydro-1,3-benzoxazol-5-yl)amino]-3-oxopropyl}-N-cyclobutyl-2-methylbiphenyl-4-carboxamide hydrochloride], the IC50 on human plasmin was 0.74 nM; against human factor XIa it was 7.9 nM.
Regarding `Cc1cc(C(=O)N2CCCC2)ccc1-c1ccc(C[C@H](NC(=O)[C@H]2CC[C@H](CN)CC2)C(=O)Nc2ccc(-c3nn[nH]n3)cc2)cc1` [Example 20, trans-4-(Aminomethyl)-N-[(2S)-3-[2′-methyl-4′-(pyrrolidin-1-ylcarbonyl)biphenyl-4-yl]-1-oxo-1-{[4-(2H-tetrazol-5-yl)phenyl]amino}propan-2-yl]cyclohexanecarboxamide], the figures for the IC50 at human plasmin and against human factor XIa were 5.7 nM and 1.8 nM, respectively.
As to `Cc1cc(C(=O)NC(C)C)ccc1-c1ccc(C[C@@H](NC(=O)C2CCC(CN)CC2)C(=O)Nc2ccc3cn[nH]c3c2)cc1` (single isomer, unassigned; enantiomer 1) [Example 169], the IC50 against human plasmin came out at 270 nM; against human factor XIa, 2800 nM.

The values above are taken from patent US20160272617A1, “SUBSTITUTED PHENYLALANINE DERIVATIVES” (BAYER PHARMA AKTIENGESELLSCHAFT, priority 2013, published 2016).
